Measured values reported in patent US20260263424A1, “Formulations of 2-Arylbenzimidazole Compounds” (Tranquis Therapeutics, Inc., priority 2022, published 2026).
Where two headings read alike, the source gives them in different places.

Experiments:
[1] = male, human, in vivo, 120 mg, 7 days
[2] = human, in vivo
[3] = tested on: Ppargc1α (PGC-1α) expression; conditions: Zhang et al., Diabetes 62:1297-1307 (2013); cited from earlier work
[4] = cited from earlier work
[5] = Single ascending dose (SAD) phase 1 trial, plasma pharmacokinetics of MC, SDD and HME formulations; conditions: for Frel Cmax/D (relative bioavailability, geometric mean): dose normalized comparison to Regimen C: 540 mg compound 1 MC formulation; for AUC(0-last) (geometric mean): fasted, plasma
[6] = tested on: murine models of neurodegenerative diseases, including Parkinson's disease, Alzheimer's disease, and amyotrophic lateral sclerosis (ALS); conditions: administered orally at 25 mg/kg; cited from earlier work
[7] = WO 2021/262617; cited from earlier work
[8] = Multiple dose phase 1 trial, plasma pharmacokinetics of compound 1 SDD formulation QD for 7 days; conditions: for AR AUC (accumulation ratio based on AUC(0-tau)) / AR Cmax (accumulation ratio): Day 7, plasma
[9] = Regimen I: 120 mg compound 1 SDD formulation QD, fasted
[10] = Regimen J: 90 mg compound 1 SDD formulation QD, fed
[11] = Regimen K: 300 mg compound 1 SDD formulation QD, fed

For `CC(C)(C)c1ccc(-c2nc3cc(O)ccc3[nH]2)cc1` [Compound 2, 2-(4-(tert-butyl)phenyl)-1H-benzo[d]imidazol-5-ol], the “AR AUC (accumulation ratio based on AUC(0-tau))” value [1] was 1.46, the “dose proportionality of Cmax, AUC(0-24) and AUC(0-inf)” value ([2]; 180 mg) was “proportionally” and the “Frel Cmax (relative bioavailability, geometric mean)” value ([2]; male, 180 mg) was 64.9%. For the same compound, the “T1/2 (geometric mean)” value ([2]; male, po, 180 mg) was 9.17 h, the “Tmax (median)” value ([2]; male, po, 180 mg) was 2 h and the “Cmax (geometric mean)” value ([2]; male, po, 270 mg) was 621 ng/mL. For the same compound, the “Tmax (median)” value ([2]; male, po, 270 mg) was 2 h.
For `CC(C)(C)c1ccc(-c2nc3ccccc3[nH]2)cc1` [Compound 1, 2-(4-tert-butylphenyl)-1H-benzimidazole], the “effect on Ppargc1α (PGC-1α) expression” value [3] is listed as “activator”, the “solubility under aqueous conditions” value [4] is listed as “highly insoluble” and the “dose proportionality of Cmax, AUC(0-24) and AUC(0-inf)” value ([5]; MC formulation, single doses of 60 and 180 mg compound 1) is listed as “slightly sub-proportionally”. The “Frel Cmax/D (relative bioavailability, geometric mean)” value ([5]; Regimen D 180 mg compound 1 SDD formulation) was 218%, the “AUC(0-last) (geometric mean)” value ([5]; Regimen D: single oral 180 mg compound 1 SDD formulation) was 611 ng·h/mL and the “Frel Cmax (relative bioavailability, geometric mean)” value ([5]; Regimen E 180 mg compound 1 HME formulation, comparison to Regimen D 180 mg compound 1 SDD formulation) was 56.6%. For the same compound, the “Frel Cmax/D (relative bioavailability, geometric mean)” value ([5]; Regimen E 180 mg compound 1 HME formulation) was 124%, the “AUC(0-last) (geometric mean)” value ([5]; Regimen E: single oral 180 mg compound 1 HME formulation) was 360 ng·h/mL and the disease severity [6] was “reduce disease severity”. For the same compound, the myeloid-mediated inflammation [6] was “suppress myeloid-mediated inflammation”, the “treating systemic immune activation” value [7] was “effective” and the “AR AUC (accumulation ratio based on AUC(0-tau))” value [8, 9] was 1.58. For the same compound, the “AR Cmax (accumulation ratio)” value [8, 9] was 1.59, the “AR AUC (accumulation ratio based on AUC(0-tau))” value [8, 10] was 1.24 and the “AR Cmax (accumulation ratio)” value [8, 10] was 1.03. The “maximum individual AUC(0-tau) as share of the AUC(0-tau) exposure limit” value ([8]; Regimen J: 90 mg compound 1 SDD formulation, fed, Day 1) was 10.9%, the “AR AUC (accumulation ratio based on AUC(0-tau))” value [8, 11] was 1.66 and the “AR Cmax (accumulation ratio)” value [8, 11] was 1.74.
